Laboratory results as given in patent US20230406847A1, “LIGANDS OF PROSTATE SPECIFIC MEMBRANE ANTIGEN (PSMA) CONTAINING HETEROAROMATIC LINKER BUILDING BLOCKS” (ABX ADVANCED B[…] GMBH, priority 2020, published 2023).

system: human PSMA+ LNCaP cells; test: Internalization of radiolabelled compounds in LNCaP cells; type: cell-based; settings: 0.75 h, 0.03 µM
Method: Gallium labeling was carried out using 90 μL HEPES in water (580 mg/mL; ultrapure-grade, Merck, Darmstadt, Germany) mixed with 40 μL of [^68Ga]GaCl3. The pH of the mixture was adjusted to 3.8 to 4.1 with NaOH (30%; ultrapure-grade, Merck, Darmstadt, Germany). Subsequently 1.0 nmol of a synthesized compound of Example 3 to 10 was added and incubated at 98 ° C. for 10 to 15 minutes. For the competitive cell assay, the precursor amount was diminished to 0.5 nmol.
Lutetium labelling was carried out using 115 μL of sodium acetate buffer (400 mM, pH mixed with 10 to 20 MBq [177Lu]LuCl3. Subsequently, 1.0 nmol of a synthesized compound of Example 3 to 10 was added and incubated at 98 ° C. for 20 to 25 minutes.
Cell binding studies were performed using human PSMA+ LNCaP cells (ATCC CRL-1740) cultured in RPMI 1640 medium supplemented with 10% fetal bovine serum (Sera plus, PAN Biotech) and 2 mmol/l stable glutamine (PAN Biotech). Cells were grown at 37° C. in an incubator with humidified air and 5% CO2. Trypsin/EDTA 0.5%/0.02% in PBS (PAN Biotech) was used to harvest cells.
1×10^5 LNCaP cells were seeded in poly-L-lysine coated 24-well-plates for 24 h at 37° C. humidified air with 5% CO2. After removing the medium, cells were incubated with radiolabelled compounds of Example 11 (30 nM) for 45 minutes at 37° C. and at 4° C. respectively. For determination of specific cell uptake, cells were blocked with PMPA (Tocris) at a concentration of 500 μM. The cells were washed three times with 1 ml ice-cold PBS, twice with 500 μl glycine-HCl (50mM; pH 2.8) for 5 min at rt to remove the surface-bound radioactivity and with 1 ml ice-cold PBS. Subsequent the cells were lysed with 0.5 ml 0.3M NaOH. The internalized and the surface-bound fractions were measured in a gammacounter.

Compound	internalisation rate (%)
O=C(O)CC[C@H](NC(=O)N[C@@H](CCCCNC(=O)[C@H](Cc1ccc2ccccc2c1)NC(=O)[C@H]1CC[C@H](CNC(=O)CN2CCN(CC(=O)O)CCN(CC(=O)O)CCN(CC(=O)O)CC2)CC1)C(=O)O)C(=O)O [PSMA-617, (3S,10S,14S)-3-[(naphthalen-2-yl)methyl]-1,4,12-trioxo-1-[(1R,4S)-4-[[2-[4,7,10-tris(carboxymethyl)-1,4,7,10-etraazacyclododecan-1-yl]acetamido]methyl]cyclo-hexyl]-2,5,11 ,13-tetraazahexadecane-10,14,16-tricarboxylic acid, reference compound]	31.1

same assay, conditions: radiolabelled compounds (30 nM), 45 minutes, 37° C. and 4° C., LNCaP cells, specific uptake by blocking with PMPA 500 μM

Compound	internalisation rate (%)
Cc1nc(CNC(=O)CN2CCN(CC(=O)O)CCN(CC(=O)O)CCN(CC(=O)O)CC2)sc1C(=O)N[C@@H](Cc1ccc2ccccc2c1)C(=O)NCCCC[C@H](NC(=O)N[C@@H](CCC(=O)O)C(=O)O)C(=O)O [Example ABX271]	37.8
O=C(O)CC[C@H](NC(=O)N[C@@H](CCCCNC(=O)[C@H](Cc1ccc2ccccc2c1)NC(=O)c1ccc(CNC(=O)CN2CCN(CC(=O)O)CCN(CC(=O)O)CCN(CC(=O)O)CC2)s1)C(=O)O)C(=O)O [Example ABX272]	41.4
O=C(O)CC[C@H](NC(=O)N[C@@H](CCCCNC(=O)[C@H](Cc1ccc2ccccc2c1)NC(=O)c1cc(CNC(=O)CN2CCN(CC(=O)O)CCN(CC(=O)O)CCN(CC(=O)O)CC2)on1)C(=O)O)C(=O)O [Example ABX288]	33.2
O=C(O)CC[C@H](NC(=O)N[C@@H](CCCCNC(=O)[C@H](Cc1ccc2ccccc2c1)NC(=O)c1ccc(CNC(=O)CN2CCN(CC(=O)O)CCN(CC(=O)O)CCN(CC(=O)O)CC2)nc1)C(=O)O)C(=O)O [Example ABX289]	55.7
O=C(O)CC[C@H](NC(=O)N[C@@H](CCCCNC(=O)[C@H](Cc1csc2ccccc12)NC(=O)c1cc(CNC(=O)CN2CCN(CC(=O)O)CCN(CC(=O)O)CCN(CC(=O)O)CC2)on1)C(=O)O)C(=O)O [Example ABX338]	40.8
O=C(O)CC[C@H](NC(=O)N[C@@H](CCCCNC(=O)[C@H](Cc1ccc2ccccc2c1)NC(=O)c1cc(CNC(=O)[C@H](CCCCNc2ccc([N+](=O)[O-])cc2[N+](=O)[O-])NC(=O)CN2CCN(CC(=O)O)CCN(CC(=O)O)CCN(CC(=O)O)CC2)on1)C(=O)O)C(=O)O [Example ABX339]	60.6
O=C(O)CC[C@H](NC(=O)N[C@@H](CCCCNC(=O)[C@H](Cc1csc2ccccc12)NC(=O)c1cc(CNC(=O)[C@H](CCCCNc2ccc([N+](=O)[O-])cc2[N+](=O)[O-])NC(=O)CN2CCN(CC(=O)O)CCN(CC(=O)O)CCN(CC(=O)O)CC2)on1)C(=O)O)C(=O)O [Example ABX341]	61.3
O=C(O)CC[C@H](NC(=O)N[C@@H](CCCCNC(=O)[C@H](Cc1csc2ccccc12)NC(=O)c1cc(CNC(=O)[C@H](CCCCNC(=O)c2ccc(I)cc2)NC(=O)CN2CCN(CC(=O)O)CCN(CC(=O)O)CCN(CC(=O)O)CC2)on1)C(=O)O)C(=O)O [Example ABX346]	46.7
